Experimental findings from patent US9598463B2, “Mucin hypersecretion inhibitors and methods of use” (BIOMARCK PHARMACEUTICALS, LTD., priority 2005, dated 2017) are described below.

Some results are limits rather than exact numbers.

Data set [1] concerns methacholine-induced mucin hypersecretion. Kind of data set: Duration of action of test peptides in a murine model of asthma. The data set is classed as in vivo. Conditions: Balb/C mice. The source says:
Experiments were designed to test whether or not the MANS peptide and other test peptides related thereto inhibit hypersecretion of mucin in murine airway in vivo. The ovalbumin-sensitized mouse model of allergic inflammation and asthma used in these studies was as described by Singer et al. (2004), supra. As a negative control, a control peptide containing an N-terminal myristoyl group and the same amino acids as MANS peptide but arranged in random order (i.e., the random N-terminal sequence, RNS, myristoyl-peptide 232) was tested alongside the proposed active peptides. BP2 mice, aged 6-8 wks, were immunized subcutaneously twice at weekly intervals with 1 μg of ovalbumin. After 14 days of sensitization, the animals were exposed to aerosolized ovalbumin, which causes a pronounced goblet cell hyperplasia after 72 hours. At the 72 hr time point, the secretagogue, methacholine ([…]) was delivered using a Buxco system nebulizer providing a fine aerosol for 90 seconds. Fifteen min prior to the secretagogue challenge, 50 μL of the test peptide, at 3 different concentrations (10 μM, 100 μM, or 140 μM), was administered by intratracheal route. The RNS peptide was tested at the highest dose level only (50 μL of 140 μM solution). […] Each experiment was carried out in 6 mice per point, and each set of experiments was repeated 3 times. To test strain-to-strain variations, the above experiment was repeated in Balb/C mice under similar protocol. Both stimulated and unstimulated mucin secretion, in mice treated with […] sodium acetate (data not shown), were identical to saline control. Following the methacholine challenge, the animals were sacrificed and bronchoalveolar lavage (BAL) performed on 6 animals per group for analysis of secreted mucin.
Mice were sacrificed by cervical dislocation, followed by rapid exposure of the trachea and insertion of a cannula through a small incision. Bronchoalveolar lavage (BAL) fluid was collected with 0.5 ml followed by 3×1 ml PBS containing PMSF (5 mM), EDTA (5 mM), and DTT (5 mM). BAL fluid was separated into cell-free and cell fractions via brief centrifugation prior to any analyses being performed. The cell-free supernatants were analyzed for the presence of mucin via an ELISA method using anti-mucin antibodies shown to react with mouse mucin. Specifically, a mouse anti-MUC5AC antibody that recognizes the carbohydrate portion of secreted mucin was used in these assays. Data generated from each BAL sample were normalized to total protein as determined by Bradford assay. Mucin content was expressed as the value obtained with the anti-mucin antibody minus that obtained with the non-immune control antibody. All ELISA data were statistically examined using a one-way ANOVA.
Experiments were designed to determine the duration of action of test peptides in a murine model of asthma. As described in Method 1A, Balb/C mice were immunized with ovalbumin. After 14 days, the animals were challenged with aerosolized ovalbumin. After 72 hours the secretagogue, methacholine was delivered by aerosolization. The test peptides ([…] of 100 µM solution) were administered by intratracheal route 30 min, 60 min, or 120 min prior to methacholine challenge. The animals were sacrificed and BAL performed for analysis of secreted mucin The results of this experiment are given in Table VI.

Data set [2] is described as follows: Qualitative solubility of test peptides in 0.5 N saline. The data set is classed as physicochemical. The note with it: pH 6.5, 20° C. (table title). The gist of the method: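 Weighed peptide (1 to 5 mg) titrated with 25 μL aliquots of 0.5 N saline, pH 6.5, at 25° C until dissolution judged visually. Solubility calculated from volume needed; complete dissolution in first aliquot reported as greater than, non-dissolution as less than, the calculated value.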

Data set [3] is described as follows: Stability of test peptides in human BALF (LC/MS/MS, first order half-life). The data set is classed as in vitro ADME. The note with it: cerebrospinal or other body fluid, human BALF from COPD patients, 1st experiment, read-out: BALF t1/2 (1st exp.) (converted). As for the experimental part: Various test peptides in human plasma, human BALF, and CF patient mucus were analyzed to determine the susceptability of the test peptide to proteolysis in the biological fluids. […] The samples were analyzed either on the same day as received or stored at −20° C. and analyzed within the following two days.
Samples of BALF collected from COPD patients were obtained and frozen. The BALF samples were thawed, mixed together and centrifuged at 10,000×g for 10 min at 4-8° C. The supernatant (0.9 mL) was spiked with 0.1 mL of 0.5 mg/mL solution of the peptide in 75 mM sodium acetate buffer at pH 7.0 and processed and analyzed as described above.
All samples were analyzed using LC/MS/MS (MDS/SCIEX, API 4000 Model). Chromatography was performed using a Phenomenex Luna C18 column, while mass spectrometry was performed using positive ion electrospray ionization.
Calibration standards were analyzed by LCMS at concentrations of 0.100 μg/mL, 1.00 μg/mL, 10.0 μg/mL, and 100 μg/mL for each peptide, with the exception of the calibration standards for peptides myr-PEPTIDE 106, PEPTIDE 106, PEPTIDE 106-NH2, PEPTIDE 106, and cyclic peptide, cyc-PEPTIDE 106, in human mucus, which were analyzed at concentrations of 0.100 μg/mL, 1.00 μg/mL, 10.0 μg/mL, and 75 μg/mL. Standards were prepared in 1% human BALF, plasma, or mucus in 50/50 water/acetonitrile mixture containing 0.2% formic acid. The instrument response values for each set of standards were fit using a 1/(concentration)^2 linear least-squares line. Sample concentrations were calculated using the slope and intercept of this line. Concentrations outside of the calibration range were determined by extrapolating the calibration curve.
Duplicate calibration standards were analyzed at a concentration of 50 μg/mL for each peptide. The instrument response values for each set of standards were fit through an intercept of 0 using an unweighted, linear least-squares line. Sample concentrations were calculated using the slope and intercept of this line.
For the analysis of peptide concentration in BALF samples, one 50 μg/mL calibration standard prepared in a mixture of BALF, water, acetonitrile, and formic acid was analyzed with each sample set.
Watson fits the log transformed data with a least-squares line to determine parameters such as Cmax (maximum concentration), intercept, rate constant, slope, and T1/2 (half-life). The resulting kinetic parameters were based on the linear fit, not the actual concentration values.
Time-zero calibration standards in solution were not included as part of the kinetic profiles.

[4] abbreviates: peptide intratracheal 30 min prior to methacholine challenge.
The mark [5] stands for this setting: peptide intratracheal 60 min prior to methacholine challenge.
Where [6] appears, read: peptide intratracheal 120 min prior to methacholine challenge.

For Ac-GAQFSKTAAK-OH [Ac-peptide 106], the “Duration of action, mucin secretion (% of Control)” value in data set [1] (setting [4]) is recorded as 21 % of Control; in data set [1] (setting [5]), 72 % of Control; in data set [1] (setting [6]) it was 70 % of Control. This substance also registered a solubility in data set [2] of over 100 mg/mL. Besides, the half-life in data set [3] was 1.89 h.
As for “H-GAQFSKTAAK-OH [peptide 106, GAQFSKTAAK]”, the “Duration of action, mucin secretion (% of Control)” value in data set [1] (setting [4]) is given as 23 % of Control; in data set [1] (setting [5]), 48 % of Control; in data set [1] (setting [6]), 57 % of Control. In data set [2], this substance came in with a solubility of over 70 mg/mL. In addition, the half-life in data set [3] was 1.88 h.

By solubility is commonly meant how much of the substance goes into solution per volume. A low value points to little dissolved substance.
